In one experiment the target is T1, TXA2 synthase (Homo sapiens, UniProt P24557).
T1 construct: using microsomal fractions from human platelets as enzyme source; from tissue; host or cells: human platelets (microsomal fraction)
T1 sequence (P24557 1-533): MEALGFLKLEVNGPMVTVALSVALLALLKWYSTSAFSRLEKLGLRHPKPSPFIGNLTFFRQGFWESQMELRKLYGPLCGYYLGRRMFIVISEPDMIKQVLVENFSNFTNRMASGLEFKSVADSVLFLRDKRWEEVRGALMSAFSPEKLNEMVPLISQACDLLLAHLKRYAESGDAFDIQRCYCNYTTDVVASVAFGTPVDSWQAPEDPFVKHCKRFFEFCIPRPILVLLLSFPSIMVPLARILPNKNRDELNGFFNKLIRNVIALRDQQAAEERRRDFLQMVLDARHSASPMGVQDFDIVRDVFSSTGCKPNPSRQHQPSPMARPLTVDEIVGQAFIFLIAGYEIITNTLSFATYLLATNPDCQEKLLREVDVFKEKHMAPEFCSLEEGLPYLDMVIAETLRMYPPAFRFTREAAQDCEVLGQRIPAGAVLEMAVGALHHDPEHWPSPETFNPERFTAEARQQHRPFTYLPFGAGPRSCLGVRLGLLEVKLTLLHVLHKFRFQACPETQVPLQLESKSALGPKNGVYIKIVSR
The experiment is described as follows: Thromboxane synthase inhibition, in vitro. The settings on record: at 10^-7M; microsomal fractions from human platelets; read-out: TXA2Synthase Inhibition (% at 10^-7M). The format is biochemical. The procedure:
TXA2 synthase activity is measured by following the conversion of ^14C-prostaglandin endoperoxide (PGH2) to ^14C-thromboxane A2 (TXA2) using microsomal fractions from human platelets as enzyme source. In the aqueous incubation medium, the TXA2 decomposes rapidly into TXB2. The amount of TXA2 synthase is adjusted so that under the conditions of the assay approximately 80-90% of the substrate, PGH2, is converted to product in control tubes. To prepare ^14C-PGH2, ^14C-AA (50-60 mCi/mmole: Rose Chem.) is incubated with sheep seminal vesicular gland microsomes for 1.5 minutes at 37°C and then the ^14C-PGH2 is extracted with diethylether, purified on columns of Sephadex LH-20 or silicic acid, and stored in acetone at -70°C. Incubations are done as follows. Sufficient ^14C-PGH2 to yield a final substrate concentration of 10 µM (30,000 cpm) is added to the incubation tubes and then the acetone is removed under nitrogen. The tubes are placed in an ice bath and then 215 1 of ice cold phosphate buffered saline, 10 1 of ethanol (control) or of test drug in ethanol, and 25 1 of the microsomal suspension are added with mixing in that order as rapidly as possible. The tubes are incubated at 22°C for 2 minutes, the reaction is stopped and then the radioactive products and the uncoverted PGH2 are extracted and analyzed by thin layer chromatography. […] The amount of ^14C-PGH2 converted to products was used as a measure of TXA2 synthase activity. Inhibitors were tested initially at a final concentration of 100 µM. Results obtained with representative compounds of the present invention in this assay are summarized hereafter in Table I.

For experiment [1], the system named is antigen-induced bronchoconstriction. The experiment in a line: In vivo screening procedure for SRS-A synthesis inhibitors in guinea pigs. The conditions noted are these: 10 mg/kg i.v., 1 minute prior to antigen challenge. From the text:
Paralyzed, artificially ventilated, actively sensitized guinea pigs are pretreated with indomethacin (to divert the flow of endogenous arachidonic acid through the lipoxygenase pathway), pyrilamine maleate (to block any bronchoconstriction due to released histamine) and propranol (to enhance the sensitivity of the guinea pig bronchoconstriction to SRS-A) prior to challenging the animal with antigen. Under these conditions the resulting antigen-induced bronchoconstriction has been characterized as being attributable to the synthesis and release of SRS-A in the guinea pig lung. Test compounds are initially studies for their inhibitory properties in this test system by the intravenous route (at 10 mg/kg) given 1 minute prior to antigen challenge.

Each structure is given as a SMILES string.

For the compound `CC(C)c1cc(C(C)C)c2nc3sc(C(=O)NCCCCc4cccnc4)cn3c(=O)c2c1` [the 1st table, row 5, 7,9-bis(1-methylethyl)-5-oxo-N-[4-(3-pyridinyl)butyl]-5H-thiazolo[2,3-b]quinazoline-2-carboxamide], on TXA2 synthase, the inhibition – broadly, the relative decrease from the control value, in per cent – at 0.1 µM was found to be 63%.
For `CC(C)c1ccc2nc3sc(C(=O)NCCCCc4ccccn4)cn3c(=O)c2c1` [Example 11], the “inhibition of the bronchoconstriction” value in experiment [1] was 44%.
Regarding `CC(C)c1ccc2nc3sc(C(=O)NCCCCn4ccnc4)cn3c(=O)c2c1` [the 1st table, row 8], the inhibition at 0.1 µM on TXA2 synthase amounted to 67%.
On to `CC(C)c1ccc2nc3sc(C(=O)NCCCCc4cccnc4)cn3c(=O)c2c1` [the 1st table, row 4, 7-(1-Methylethyl)-5-oxo-N-[4-(3-pyridinyl)butyl]-5H-thiazolo[2,3-b]quinazoline-2-carboxamide], for which the inhibition at 0.1 µM on TXA2 synthase came to 73%.
For `CC(C)c1ccc2nc3sc(C(=O)NCCCCOc4cccnc4)cn3c(=O)c2c1`, the inhibition at 0.1 µM at TXA2 synthase was determined as 30%.

The record behind these values is EP0142057A2, “Thiazoloquinazoline derivatives, their preparation and pharmaceutical compositions containing same” (F. HOFFMANN-LA ROCHE AG, priority 1983, dated 1985).
